The subject of test [1] is DLD1 BRCA2 (−/−) cells. The experiment in a line: DLD1 viability assay (CellTiter-Glo, 7 days), DLD1 BRCA2 (−/−). To be noted: Homo sapiens, DLD-1, 168 h, read-out: Viability IC50 (μM) DLD1 BRCA2 null. The class given is cell-based. For orientation: Cellular ATP, detected with luciferase, serves as a proxy for viable cell number.
For test [2], the target named is T1, biotinylated Avi-POLΘ[2-894] (Homo sapiens, UniProt O75417).
T1 construct: 1 nM biotinylated Avi-POLΘ[2-894]
T1 sequence (O75417 2-894 limits assumed): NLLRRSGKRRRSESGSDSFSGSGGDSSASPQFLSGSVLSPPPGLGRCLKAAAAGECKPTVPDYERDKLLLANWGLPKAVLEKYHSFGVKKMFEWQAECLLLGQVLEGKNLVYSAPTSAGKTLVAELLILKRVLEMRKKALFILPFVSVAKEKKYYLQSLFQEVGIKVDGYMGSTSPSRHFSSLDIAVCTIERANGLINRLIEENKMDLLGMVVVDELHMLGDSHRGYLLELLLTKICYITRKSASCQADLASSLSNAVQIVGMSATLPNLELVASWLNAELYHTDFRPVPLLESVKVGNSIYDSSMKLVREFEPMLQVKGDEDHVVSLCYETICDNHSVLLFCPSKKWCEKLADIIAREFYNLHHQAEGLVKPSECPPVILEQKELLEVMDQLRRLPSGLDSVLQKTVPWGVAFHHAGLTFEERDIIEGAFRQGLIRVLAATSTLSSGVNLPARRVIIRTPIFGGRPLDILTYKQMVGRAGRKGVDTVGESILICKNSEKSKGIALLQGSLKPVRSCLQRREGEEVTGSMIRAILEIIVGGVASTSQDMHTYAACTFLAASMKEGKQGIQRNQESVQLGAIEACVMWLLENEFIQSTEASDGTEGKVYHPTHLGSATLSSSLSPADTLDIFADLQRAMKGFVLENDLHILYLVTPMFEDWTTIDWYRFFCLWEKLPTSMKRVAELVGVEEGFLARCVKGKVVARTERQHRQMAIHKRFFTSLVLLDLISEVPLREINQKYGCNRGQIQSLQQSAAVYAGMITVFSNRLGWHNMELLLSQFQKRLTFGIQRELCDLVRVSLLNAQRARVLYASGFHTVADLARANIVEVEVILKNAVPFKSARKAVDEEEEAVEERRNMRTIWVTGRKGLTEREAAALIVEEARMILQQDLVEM
The experiment in a line: ATPase assay (ADP-Glo): POLΘ-mediated ATP hydrolysis. The settings on record: read-out: Biochemical ATPase ADPGlo IC50. A general note: In ADP-Glo the light output rises with the ADP produced.

Test [3] concerns DLD1 WT cells. The experiment in a line: DLD1 viability assay (CellTiter-Glo, 7 days), DLD1 WT. The class given is cell-based. The settings on record: Homo sapiens, DLD-1, 168 h.

Each structure is given as a SMILES string.

The term IC50 denotes the concentration that inhibits the measured activity by half. Consider `COc1cnc(Cl)cc1-c1cc(C)ncc1C(=O)Nc1nc2ncc(N3CCO[C@H]4CCC[C@H]43)nc2s1` [Example 397, 2′-chloro-N-(6-((4aR,7aS)-hexahydrocyclopenta[b][1,4]oxazin-4(4aH)-yl)thiazolo[4,5-b]pyrazin-2-yl)-5′-methoxy-6-methyl-[4,4′-bipyridine]-3-carboxamide], for which the IC50 in test [1] was 0.001 to 0.1 µM; in test [2] it was 1 to 15 nM; in test [3], > 10 µM.
As for `COc1cnc(Cl)cc1-c1cc(C)ncc1C(=O)Nc1nc2ncc(C3CCOCC3)nc2s1` [Example 512, 2′-chloro-5′-methoxy-6-methyl-N-(6-(tetrahydro-2H-pyran-4-yl)thiazolo[4,5-b]pyrazin-2-yl)-[4,4′-bipyridine]-3-carboxamide], the IC50 is 0.001 to 0.1 µM in test [1], 1 to 15 nM in test [2] and > 10 µM in test [3].
As for `COc1cnc(Cl)cc1-c1cc(C)ncc1C(=O)Nc1nc2ncc([C@@H]3CC[C@@H](CO)C3)nc2s1` (single isomer, unassigned) [Example 498, 2′-chloro-N-(6-((1R or S,3R and S)-3-(hydroxymethyl)cyclopentyl)thiazolo[4,5-b]pyrazin-2-yl)-5′-methoxy-6-methyl-[4,4′-bipyridine]-3-carboxamide], the IC50 in test [1] was 0.001 to 0.1 µM; in test [2] it was 1 to 15 nM; in test [3] it was > 10 µM.
Regarding `COc1cnc(Cl)cc1-c1cc(C)ncc1C(=O)Nc1nc2ncc(N3CCC(O)(C(F)(F)F)CC3)nc2s1` [Example 511, 2′-chloro-N-(6-(4-hydroxy-4-(trifluoromethyl)piperidin-1-yl)thiazolo[4,5-b]pyrazin-2-yl)-5′-methoxy-6-methyl-[4,4′-bipyridine]-3-carboxamide], the results for the half-maximal inhibitory concentration (IC50) in test [1], in test [2] and in test [3] were 0.001 to 0.1 µM, 1 to 15 nM and 2.5 to 5 µM, respectively.
Take `CNC1CCN(c2cnc3nc(NC(=O)c4cnc(C)cc4-c4cc(Cl)ncc4OC)sc3n2)CC1` [Example 477, 2′-chloro-5′-methoxy-6-methyl-N-(6-(4-(methylamino)piperidin-1-yl)thiazolo[4,5-b]pyrazin-2-yl)-[4,4′-bipyridine]-3-carboxamide]: in test [2], the IC50 fell in the range of 15 to 50 nM.
Same read-out and setting: under `CC(=O)N1CC2(C1)CN(c1cc(C)ncc1C(=O)Nc1nc3ncc(-c4ccncc4)cc3s1)C2` [Example 202] stands > 900 nM; under `Cc1cc(N2CCC3(CNC(=O)C3)C2)c(C(=O)Nc2nc3ncc(-c4ccncc4)cc3s2)cn1` (racemic) [Example 201], > 900 nM.
As to `COc1cnc(Cl)cc1-c1cc(C)ncc1C(=O)Nc1nc2ncc(N3C[C@@H](C)OC[C@@H]3C)nc2s1` [Example 419, 2′-chloro-N-(6-((2R,5S)-2,5-dimethylmorpholino)thiazolo [4,5-b]pyrazin-2-yl)-5′-methoxy-6-methyl-[4,4′-bipyridine]-3-carboxamide], the 50% inhibitory concentration (IC50) in test [2] lay within 1 to 15 nM.
Same read-out and setting: in the case of `COc1cnc(Cl)cc1-c1cc(C)ncc1C(=O)Nc1nn2cc(C(=O)N[C@H]3C[C@](O)(C(F)(F)F)C3)nc2s1` [Example 32, 2-(2′-chloro-5′-methoxy-6-methyl-[4,4′-bipyridine]-3-carboxamido)-N-((1s,3s)-3-hydroxy-3-(trifluoromethyl)cyclobutyl)imidazo[2,1-b][1,3,4]thiadiazole-6-carboxamide] it was > 900 nM; in that of `COc1ccc(C#N)cc1-c1cc(C)ncc1C(=O)Nc1nc2ncc(N3CCC(O)(C(F)F)CC3)nc2s1` (single isomer, unassigned) [Example 418, 4-(5-cyano-2-methoxyphenyl)-N-(6-(4-(difluoromethyl)-4-hydroxypiperidin-1-yl)thiazolo[4,5-b]pyrazin-2-yl)-6-methylnicotinamide], 1 to 15 nM.
The same measure, in the same setting: under `Cc1cc(C2=CCN(C(=O)OC(C)(C)C)CC2)c(C(=O)Nc2nc3ncc(-c4ccncc4)nc3s2)cn1` [Example 139] stands 150 to 900 nM.
Take `COc1cnc(Cl)cc1-c1cc(C)ncc1C(=O)Nc1nc2ncc(C3CCOC3)nc2s1` (single isomer, unassigned) [Example 473, (R or S)-2′-chloro-5′-methoxy-6-methyl-N-(6-(tetrahydrofuran-3-yl)thiazolo[4,5-b]pyrazin-2-yl)-[4,4′-bipyridine]-3-carboxamide]: the IC50 in test [2] lay within 15 to 50 nM.
Take `COc1cnc(Cl)cc1-c1cc(C)ncc1C(=O)Nc1nc2ncc([C@H]3CC[C@@H](C#N)CC3)nc2s1` [Example 451, 2′-chloro-N-(6-((1s,4s)-4-cyanocyclohexyl)thiazolo[4,5-b]pyrazin-2-yl)-5′-methoxy-6-methyl-[4,4′-bipyridine]-3-carboxamide]: in test [2], the half-maximal inhibitory concentration (IC50) was in the range of 1 to 15 nM.
The same measure, in the same setting: under `COc1cnc(Cl)cc1-c1cc(C)ncc1C(=O)Nc1nc2ncc(N3CCOC[C@@H]3C(F)(F)F)nc2s1` [Example 414, (R)-2′-chloro-5′-methoxy-6-methyl-N-(6-(3-(trifluoromethyl)morpholino)thiazolo[4,5-b]pyrazin-2-yl)-[4,4′-bipyridine]-3-carboxamide] stands 15 to 50 nM.
Consider `COc1cnc(Cl)cc1-c1cc(C)ncc1C(=O)Nc1nc2ncc(N3CCOC(C)C3C)nc2s1` (stereo not shown) [Example 425, 2′-chloro-N-(6-(2,3-dimethylmorpholino)thiazolo [4,5-b]pyrazin-2-yl)-5′-methoxy-6-methyl-[4,4′-bipyridine]-3-carboxamide], for which the half-inhibitory concentration (IC50) in test [2] lay in the range of 1 to 15 nM.
With `COc1cnc(Cl)cc1-c1cc(C)ncc1C(=O)Nc1nc2ncc(C3(O)CCOCC3)nc2s1` [Example 390, 2′-chloro-N-(6-(4-hydroxytetrahydro-2H-pyran-4-yl)thiazolo[4,5-b]pyrazin-2-yl)-5′-methoxy-6-methyl-[4,4′-bipyridine]-3-carboxamide], in test [2], the half-inhibitory concentration (IC50) is 15 to 50 nM.
Take `COc1cnc(Cl)cc1-c1cc(C)ncc1C(=O)Nc1nn2cc(C3CCCCC3)nc2s1` [Example 315]: the IC50 in test [2] was in the range of 1 to 15 nM.
Regarding `COc1cnc(Cl)cc1-c1cc(C)ncc1C(=O)Nc1nc2ncc(N3CC[C@H](OC)[C@H](F)C3)nc2s1` [Example 453, 2′-chloro-N-(6-((3R,4S)-3-fluoro-4-methoxypiperidin-1-yl)thiazolo[4,5-b]pyrazin-2-yl)-5′-methoxy-6-methyl-[4,4′-bipyridine]-3-carboxamide], the concentration for half-maximal inhibition (IC50) in test [2] fell in the range of 1 to 15 nM.
Turning to `Cc1cc(-c2nn(C)c3ccncc23)c(C(=O)Nc2nc3ncc(-c4ccncc4)nc3s2)cn1` [Example 517, 6-methyl-4-(1-methyl-1H-pyrazolo[4,3-c]pyridin-3-yl)-N-(6-(pyridin-4-yl)thiazolo[4,5-b]pyrazin-2-yl)nicotinamide], the half-maximal inhibitory concentration (IC50) in test [2] is > 900 nM.
On to `COc1cnc(Cl)cc1-c1cc(Oc2cccc(NC(=O)OC(C)(C)C)c2)ncc1C(=O)Nc1nn2cc(C3CC3)nc2s1` [Example 495, tert-butyl (3-((2′-chloro-5-((6-cyclopropylimidazo[2,1-b][1,3,4]thiadiazol-2-yl)carbamoyl)-5′-methoxy-[4,4′-bipyridin]-2-yl)oxy)phenyl)carbamate], for which, in test [2], the IC50 is 150 to 900 nM.
In the case of `COc1cnc(Cl)cc1-c1cc(C)ncc1C(=O)Nc1nc2ncc(N3CC[C@@H](CO)C3)nc2s1` [Example 501, (R)-2′-chloro-N-(6-(3-(hydroxymethyl)pyrrolidin-1-yl)thiazolo[4,5-b]pyrazin-2-yl)-5′-methoxy-6-methyl-[4,4′-bipyridine]-3-carboxamide], the 50% inhibitory concentration (IC50) in test [2] is 1 to 15 nM.
On to `COc1cnc(Cl)cc1-c1cc(C)ncc1C(=O)Nc1nn2cc(C(=O)N[C@H]3CC[C@@H](O)CC3)nc2s1` [Example 292], for which the IC50 in test [2] was 1 to 15 nM.
Same read-out and setting: under `COc1cnc(Cl)cc1-c1cc(C)ncc1C(=O)Nc1nc2ncc(N3CC[C@@](C)(OC)[C@@H](F)C3)nc2s1` (single isomer, unassigned) [Example 363, 2′-chloro-N-(6-((3S or R,4R or S)-3-fluoro-4-methoxy-4-methylpiperidin-1-yl)thiazolo[4,5-b]pyrazin-2-yl)-5′-methoxy-6-methyl-[4,4′-bipyridine]-3-carboxamide] stands 15 to 50 nM; under `COc1cnc(Cl)cc1-c1cc(C)ncc1C(=O)Nc1nc2ncc(N3CCO[C@@H](C)[C@@H]3C)nc2s1` (single isomer, unassigned) [Example 415, 2′-chloro-N-(6-((2S or R,3S or R)-2,3-dimethylmorpholino)thiazolo [4,5-b]pyrazin-2-yl)-5′-methoxy-6-methyl-[4,4′-bipyridine]-3-carboxamide], 15 to 50 nM; under `COc1cnc(Cl)cc1-c1cc(C)ncc1C(=O)Nc1nn2cc(C(=O)N3CC[C@H](O)C3)nc2s1` [Example 36, (S)-2′-chloro-N-(6-(3-hydroxypyrrolidine-1-carbonyl)imidazo[2,1-b][1,3,4]thiadiazol-2-y1)-5′-methoxy-6-methyl-[4,4′-bipyridine]-3-carboxamide], 15 to 50 nM.
On to `Cc1cc(N2CCC[C@H](C#N)C2)c(C(=O)Nc2nc3ncc(-c4ccncc4)cc3s2)cn1` (single isomer, unassigned) [Example 143], for which, in test [2], the half-maximal inhibitory concentration (IC50) was in the range of 150 to 900 nM.
For `COc1cnc(Cl)cc1-c1cc(C)ncc1C(=O)Nc1nc2ncc(N3CCO[C@H](C)[C@H]3C)nc2s1` (single isomer, unassigned) [Example 402, 2′-chloro-N-(6-((2R or S,3R or S)-2,3-dimethylmorpholino)thiazolo [4,5-b]pyrazin-2-yl)-5′-methoxy-6-methyl-[4,4′-bipyridine]-3-carboxamide], the concentration for half-maximal inhibition (IC50) in test [2] lay in the range of 1 to 15 nM.
Regarding `COc1cnc(Cl)cc1-c1cc(Oc2cc(N)cc(Cl)c2)ncc1C(=O)Nc1nn2cc(C3CC3)nc2s1` [Example 493, 6-(3-amino-5-chlorophenoxy)-2′-chloro-N-(6-cyclopropylimidazo[2,1-b][1,3,4]thiadiazol-2-yl)-5′-methoxy-[4,4′-bipyridine]-3-carboxamide], in test [2], the concentration for half-maximal inhibition (IC50) lay in the range of 50 to 150 nM.
Consider `COc1cnc(Cl)cc1-c1cc(Oc2cccc(N)c2)ncc1C(=O)Nc1nn2cc(C3CC3)nc2s1` [Example 494, 6-(3-aminophenoxy)-2′-chloro-N-(6-cyclopropylimidazo[2,1-b][1,3,4]thiadiazol-2-yl)-5′-methoxy-[4,4′-bipyridine]-3-carboxamide], for which the IC50 in test [2] lay within 15 to 50 nM.

These data come from patent US20260015360A1 (MOMA Therapeutics, Inc., priority 2023, published 2026).
